In patent US7332503B2, “Aporphine esters and their use in therapy” (Axon Biochemicals B.V., priority 2000, dated 2008):
Counter-ions that a name gives are not always drawn.

Tests used:
rat [1] = test: Transdermal experiment in one single rat (shaved neck); format: in vivo
Experimental: The test animals used were male albino Wistar rats weighing between 200 and 370 g. Food and water were available to the rats all the time. They were set in a normal 12 hour day night rhythm. Before the operation the animals resided in a larger cage with a group of rats. During the experiments they were alone in a cage with the dimensions 25*25*35 cm. The blood sampling was performed in freely moving animals, which were all conscious. In this way potential behavioral changes from the treatment could be registered. The operation consisted of the application of a cannula in the vena jugularis. After an experiment the rats were given at least 24 hours to recover.
This amount of cream was applied with a spatula on the shaved neck of the rat, weighing about 350 g.
After one hour and 10 minutes, about five droplets of DMSO were smeared on to the rat neck.
In a comparative experiment 7 mg of Apomorphine hydrochloride solid was dissolved in DMSO (70 microliters).

rat [2] = test: Dopaminergic activity in rats after s.c. injection in Viscoleo; format: in vivo; details: two rats, ca 3.7 mg/kg (corr. to 2 mg/kg ApoxHCl), 3.7 mg/mL in Viscoleo
Experimental: The maximum volume of an oil solution/suspension to be injected intramuscularly or subcutaneously is 2-4 mL. This is feasible for the preparations of the aporphine derivatives of the present invention. The accumulated daily dose used in apomorphine s.c. therapy in Parkinson's disease is 4-10 times about 1-4 mg (4-40 mg/day). For the animal experiments performed in the pharmacological research, which led to the present invention, ca 2 mg Apomorphine×HCl (or equivalent molar amount of compounds according to Formula I above, as the base or as a suitable salt or ion-pair) was dissolved in 1 mL of an oil (sesame oil, Viscoleo or another approved oil) and the mixture was gently heated (max 50° C.) shaken in a test tube shaker and ultrasonicated for a short time (minutes) until the mixture became a homogeneous solution or suspension. If necessary, the test compound was first dissolved in 50-300 μL DMSO, water, t-BuOH, PEG, benzylbenzoate, or another suitable and approved solvent or mixtures thereof, before adding the oil (see above) to a total volume of 1 mL.
First 2 eq. were added and after a night at room temperature the solvent was evaporated and the residue was redissolved in CH2Cl2 and a sample was taken with a pipette and chromatographed on a pipette filled with Al2O3. Elution was performed with first CH2Cl2 and then with CH2Cl2:EtOH (9:1). […]

[3] = background statement; cited from earlier work
[4] = literature, animal models; cited from earlier work
[5] = about 5 mg in Fenuril cream plus DMSO
[6] = comparative: 2 mg in 20 microliters DMSO on shaved neck

Compound: Mono-Butyryl Apomorphine [Example 2]
- behaviour the next day at 10:00 a.m. (rat [1]; [5]): still active showing signs of chewing
- time at which chewing, sniffing and yawning were still observed (rat [1]; [5]): ~6 h
- duration of stereotypy (rat [1]; about 5 mg in Fenuril cream, after DMSO): at least two
- time to typical dopaminergic syndrome including locomotor activity (rat [1]; about 5 mg in Fenuril cream, time after DMSO): About 30 minutes
- time to intense yawning, sniffing, penile licking and chewing (rat [1]; about 5 mg in Fenuril cream, time after about five droplets of DMSO smeared on neck): about 10 minutes
- dopaminergic effects (rat [1]; about 5 mg in about 120 mg Fenuril hand cream on shaved neck, first hour, before DMSO): Dopaminergic effects were seen but they were weak

Compound: CCCCCCCCCCCCCCCC(=O)Oc1ccc2c(c1OC(=O)CCCCCCCCCCCCCCC)-c1cccc3c1C(C2)N(C)CC3 (centres unmarked) [di-C16-Apo]
- effect (dopaminergic activity) (rat [2]): No effect whatsoever

Compound: N[C@@H](Cc1ccc(O)c(O)c1)C(=O)O [levodopa]
- fraction of drug converted to DA in peripheral tissues [3]: about 95%
- fraction of drug that enters the brain [3]: less than 1%

Compound: CC(=O)Oc1ccc2c(c1OC(C)=O)-c1cccc3c1C(C2)N(C)CC3 (centres unmarked) [10,11-Di-acetyl-apomorphine]
- activity relative to parent compound apomorphine [4]: almost as potent as apomorphine itself

Compound: CN1CCc2cccc3c2C1Cc1ccc(OC(=O)C(C)(C)C)c(OC(=O)C(C)(C)C)c1-3 (centres unmarked) [dipivaloyl ester pro-drug]
- activity relative to parent compound apomorphine [4]: much less active than the parent compound

Compound: CN1CCc2cccc3c2[C@H]1Cc1ccc(O)c(O)c1-3 [Apomorphine hydrochloride]
- dopaminergic activity after end of stereotypy (rat [1]; [6]): No other signs of dopaminergic activity
- duration of intense stereotypy (rat [1]; [6]): about two
- time to stereotypy (rat [1]; [6]): about 30 minutes
